This note sets out measurements from patent US12048725B2, “Methods for promoting intestinal health and for enhancing antioxidation using prebiotic composition” (TCI CO., LTD., priority 2022, dated 2024).

The assay relates to Akkermansia muciniphila. The assay is described as follows: Effects of prebiotic compositions with different components on growth of Akkermansia muciniphila (Example 2). It counts as cell-based. The text has this: The xylooligosaccharide used was purchased from Shandong Longlive Bio-Technology Co., Ltd. The lactitol used was purchased from Welltech Biotechnology Co., Ltd. The inulin used was purchased from Cosucra. The fructooligosaccharide used was purchased from Meiji. The grape ferment used was the grape ferment prepared in Example 1. The liquid medium used was tryptone soy broth (TSB; hereinafter referred to as TSB medium) with 5% sheep blood (purchased from BD).
The groups were divided into blank group, 5 experimental groups (experimental groups A-E) and 5 control groups (control groups A-E), as shown in Table 1.
The experimental medium used in control groups A-E included 94% TSB medium, 5% sheep blood and 1% single-component prebiotic compositions A-E, respectively; and the single-component prebiotic compositions A-E were xylooligosaccharide, lactitol, inulin, fructooligosaccharide and grape ferment, respectively. […]
1% activated Akkermansia muciniphila was respectively added to a 15 mL test tube containing 5 mL of medium of each group, and subjected to anaerobic culture at 37° C. for 48 hours. After 48 hours of culture, 100 μL of bacterial suspension was respectively taken from the test tube of each group, added to the solid TSB medium containing 5% sheep blood, and subjected to anaerobic culture at 37° C. for 72 hours, and then, the bacterial count of each group was calculated. […]

Take `OC[C@@H](O)[C@@H](O[C@@H]1O[C@H](CO)[C@H](O)[C@H](O)[C@H]1O)[C@H](O)[C@@H](O)CO` [control group B, lactitol]: under “1% prebiotic composition in 94% TSB medium + 5% sheep blood, anaerobic culture at 37° C. for 48 hours, then plated 72 hours, blank group 6.50 log CFU”, the bacterial count came to 6.67 log CFU. Further, the “effect on bacterial count/growth of Akkermansia muciniphila as compared with the blank group” value (1% prebiotic composition in medium, FIG. 1) is “increased the bacterial count of Akkermansia muciniphila”.
